From patent publication US12011442B2, “Solid-state forms of Abemaciclib, their use and preparation” (MACFARLAN SMITH LIMITED, priority 2018, dated 2024)

What was measured:
Assay type in all cases: physicochemical
[1] = Thermogravimetric analysis (TGA), onset of decomposition; conditions: heating rate 10.0° C./min, nitrogen; FIG. 6
Method: Analysis—TGA (Thermo Gravimetric Analysis) TGA measurements are recorded using TA Q500 instrument. The samples are weighed in aluminum pans. TGA investigations are performed at a heating rate of 10.0° C./min over a temperature range of 30-350° C., purging with nitrogen at a flow rate of 60 mL/min.

[2] = Dynamic vapor sorption (DVS) / sorption isotherm
[3] = Solid-state stability of the crystalline solvate (observation); conditions: desolvates on exposure to air
Method: A variable methanol solvate of ABC is produced by dissolving ABC in warm (55° C.) methanol (about 200 mg/mL) and then cooling (−5° C.) to force precipitation of a white powder. The resulting powder is examined by XRPD while still wet (FIG. 1, top pattern). Single crystals are grown by slow evaporation of methanol into an antisolvent (preferably ethyl acetate) or by slowly cooling a saturated solution from 50° C. to 0° C. over the course of several hours, and not exposed to air, to obviate evaporation of the solvate and the collapse of the crystalline lattice. Single crystal X-ray diffraction (SCXRD) data is undertaken at 100° K to improve diffraction quality as well as prevent desolvation. […] The single crystal is determined to be Form I of variable methanol solvate of ABC (FIG. 2) having about 2.5-3 molecules of methanol, preferably about 2.75 molecules of methanol. Form I of variable methanol solvate of ABC is unstable.

| onset of decomposition (TGA) [1] | H2O absorbed by weight (DVS) ([2]; between 0-90% relative humidity (RH), FIG. 7) | drop in weight during desorption ([2]; desorption at 20% RH, consistent with loss of a molecule of water) | H2O lost in one desorption step (sorption isotherm) ([2]; desorption between 30-20% RH, FIG. 8) | transformation from Form II anhydrous ABC to Form III of hydrate of ABC ([2]; humidity sorption/desorption) | stability of the solid-state form [3] | Structure (SMILES) |
| --- | --- | --- | --- | --- | --- | --- |
| about 320 °C | about 8% | about 4% | 4% | reversible |  | CCN1CCN(Cc2ccc(Nc3ncc(F)c(-c4cc(F)c5nc(C)n(C(C)C)c5c4)n3)nc2)CC1 [Form II anhydrous ABC] |
|  |  |  |  |  | unstable | CCN1CCN(Cc2ccc(Nc3ncc(F)c(-c4cc(F)c5nc(C)n(C(C)C)c5c4)n3)nc2)CC1 |
